# Data: ChEMBL document CHEMBL3039007, “Structure-based identification of OATP1B1/3 inhibitors” (Mol Pharmacol, 2013)
# Residues, ends and D or L forms follow the SMILES beside them.
# Assays:
# [1] = molecular target: T1, Solute carrier organic anion transporter family member 1B1 (Homo sapiens, UniProt Q9Y6L6); details: chinese hamster, cho, 10 µM
# T1 sequence (Q9Y6L6 whole entry): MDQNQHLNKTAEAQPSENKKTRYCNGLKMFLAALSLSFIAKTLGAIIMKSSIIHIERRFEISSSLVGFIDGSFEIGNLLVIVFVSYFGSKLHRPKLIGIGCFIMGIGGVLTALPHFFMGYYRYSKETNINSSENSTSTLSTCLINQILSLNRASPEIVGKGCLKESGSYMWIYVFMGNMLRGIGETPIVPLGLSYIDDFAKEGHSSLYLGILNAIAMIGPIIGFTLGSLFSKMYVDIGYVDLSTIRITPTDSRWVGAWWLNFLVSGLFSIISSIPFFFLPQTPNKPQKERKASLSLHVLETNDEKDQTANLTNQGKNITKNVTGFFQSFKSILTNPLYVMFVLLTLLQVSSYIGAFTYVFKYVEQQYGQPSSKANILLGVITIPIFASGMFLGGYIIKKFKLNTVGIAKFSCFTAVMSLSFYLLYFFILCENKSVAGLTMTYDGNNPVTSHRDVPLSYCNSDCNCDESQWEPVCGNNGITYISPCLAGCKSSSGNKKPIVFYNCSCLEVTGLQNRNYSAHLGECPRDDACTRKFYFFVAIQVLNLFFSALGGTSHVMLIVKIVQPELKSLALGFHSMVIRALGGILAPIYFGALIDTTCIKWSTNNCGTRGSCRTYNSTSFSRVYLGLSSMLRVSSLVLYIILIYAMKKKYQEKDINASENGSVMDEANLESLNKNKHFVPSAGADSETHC
# [2] = molecular target: T2, Solute carrier organic anion transporter family member 1B3 (Homo sapiens, UniProt Q9NPD5); details: chinese hamster, cho, 10 µM
# T2 sequence (Q9NPD5 whole entry): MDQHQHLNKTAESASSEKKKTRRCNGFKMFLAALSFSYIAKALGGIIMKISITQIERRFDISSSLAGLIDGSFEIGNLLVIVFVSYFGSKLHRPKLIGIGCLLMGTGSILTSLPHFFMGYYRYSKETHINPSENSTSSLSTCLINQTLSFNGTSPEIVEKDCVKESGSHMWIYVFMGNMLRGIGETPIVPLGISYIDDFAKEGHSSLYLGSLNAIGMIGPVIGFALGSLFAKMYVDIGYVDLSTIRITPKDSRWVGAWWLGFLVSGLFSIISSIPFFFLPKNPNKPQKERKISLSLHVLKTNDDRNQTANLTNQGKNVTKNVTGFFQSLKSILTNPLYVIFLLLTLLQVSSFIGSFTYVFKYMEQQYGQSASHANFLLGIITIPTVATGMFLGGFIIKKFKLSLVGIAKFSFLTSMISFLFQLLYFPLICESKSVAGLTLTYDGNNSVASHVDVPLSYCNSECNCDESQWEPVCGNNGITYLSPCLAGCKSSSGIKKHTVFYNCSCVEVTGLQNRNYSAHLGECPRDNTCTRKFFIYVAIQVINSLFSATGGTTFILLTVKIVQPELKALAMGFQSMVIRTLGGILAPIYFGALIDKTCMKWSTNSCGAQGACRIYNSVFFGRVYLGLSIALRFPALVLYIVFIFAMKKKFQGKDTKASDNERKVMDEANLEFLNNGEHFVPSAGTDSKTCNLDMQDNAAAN
Compound,residual activity [1],residual activity [2]
C[C@@H]1[C@H]2[C@H](O[C@@H]3O[C@H](CO)[C@@H](O)[C@H](O)[C@H]3O)OC=C(C(=O)O)[C@H]2C[C@@H]1O [LOGANIC ACID],49.18%,99.49%
COC(=O)C1=CO[C@@H](O[C@@H]2O[C@H](CO)[C@@H](O)[C@H](O)[C@H]2O)[C@@H]2[C@@H](C)[C@@H](O)C[C@H]12 [LOGANIN],98.87%,87.42%
CC1(C)Oc2ccc3ccc(=O)oc3c2CC1O (stereo not given) [LOMATIN],92.91%,142.3%
COc1c2c(c(CC=C(C)C)c3oc(=O)c(-c4ccc(O)cc4)c(O)c13)OC(C)(C)C=C2 [LONCHOCARPIC ACID],26.49%,36.3%
O=C(O)c1nn(Cc2ccc(Cl)cc2Cl)c2ccccc12 [LONIDAMINE],129%,108%
CN(C)C(=O)C(CCN1CCC(O)(c2ccc(Cl)cc2)CC1)(c1ccccc1)c1ccccc1.Cl [LOPERAMIDE HYDROCHLORIDE],51.98%,94.1%
CCCCc1nc(Cl)c(CO)n1Cc1ccc(-c2ccccc2-c2nn[nH]n2)cc1 [LOSARTAN],23.21%,3.759%
CN1CCN(C2=Nc3ccccc3Oc3ccc(Cl)cc32)CC1.O=C(O)CCC(=O)O [LOXAPINE SUCCINATE],140.7%,117.8%
O=C(NC(=O)c1c(F)cccc1F)Nc1cc(Cl)c(OC(F)(F)C(F)C(F)(F)F)cc1Cl (stereo not given) [LUFENURON],102.8%,97.09%
Cl.O=C(O)CCC1NCC2CC1CN1CCCCC21 (stereo not given) [LUPANYL ACID HYDROCHLORIDE],104.4%,103.3%
OC[C@@H]1CCCN2CCCC[C@H]12 [LUPININE],114.4%,90.27%
O[C@H]1[C@H]2c3cc4c(cc3CN3CCC(=C[C@@H]1O)[C@H]23)OCO4 [LYCORINE],60.96%,97.14%
NCCCC[C@H](NC(=O)[C@H](Cc1ccc(O)cc1)NC(=O)[C@@H](N)CCCCN)C(=O)O [LYSYL-TYROSYL-LYSINE ACETATE] (H-Lys-Tyr-Lys-OH),85.47%,124.3%
NCCCC[C@H](N)C(=O)N[C@@H](Cc1ccccc1)C(=O)N[C@@H](Cc1ccc(O)cc1)C(=O)O [LYSYLPHENYLALANYLTYROSINE] (H-Lys-Phe-Tyr-OH),100.8%,112.2%
Oc1ccc2c(c1)OC[C@H]1c3cc4c(cc3O[C@@H]21)OCO4 [MAACKIAIN],108.2%,114.4%
Cl.NCc1ccc(S(N)(=O)=O)cc1 [MAFENIDE HYDROCHLORIDE],81.65%,85.4%
COc1cc2c(cc1O)[C@@H](Cc1ccc(O)cc1)[N+](C)(C)CC2.[I-] [MAGNOCURARINE IODIDE],91.83%,96.29%
Cc1occc(=O)c1O [MALTOL],79.28%,74.61%
"COC(=O)C(O)c1ccccc1 (stereo not given) [MANDELIC ACID, METHYL ESTER]",97.92%,76.32%
COc1c(O)cc2oc3cc(O)c(CC=C(C)C)c(O)c3c(=O)c2c1CC=C(C)C [MANGOSTIN],150.2%,110.4%

Compound,residual activity [1],residual activity [2]
CC(=O)OC(C)(C)[C@@H]1Cc2cc3ccc(=O)oc3cc2O1 [MARMESIN ACETATE],70.52%,88.18%
CC(C)(O)[C@@H]1Cc2cc3ccc(=O)oc3cc2O1 [MARMESIN],89.64%,103.9%
COC(=O)Nc1nc2ccc(C(=O)c3ccccc3)cc2[nH]1 [MEBENDAZOLE],159.5%,99%
CCN(CCCCOC(=O)c1ccc(OC)c(OC)c1)C(C)Cc1ccc(OC)cc1.Cl (stereo not given) [MEBEVERINE HYDROCHLORIDE],89.99%,112%
CNC1(C)C2CCC(C2)C1(C)C.Cl (stereo not given) [MECAMYLAMINE HYDROCHLORIDE],93.56%,106.8%
C=C1c2c(Cl)ccc(O)c2C(=O)C2=C(O)[C@]3(O)C(=O)C(C(N)=O)=C(O)[C@@H](N(C)C)[C@@H]3[C@@H](O)[C@H]12.O=C(O)c1cc(S(=O)(=O)O)ccc1O [MECLOCYCLINE SULFOSALICYLATE],122.1%,107.8%
Cc1ccc(Cl)c(Nc2ccccc2C(=O)[O-])c1Cl.O.[Na+] [MECLOFENAMATE SODIUM],77.28%,87.03%
COC(=O)C(N)CS.Cl (stereo not given) [MECYSTEINE HYDROCHLORIDE],97.76%,99.55%
CC(=O)O[C@]1(C(C)=O)CC[C@H]2[C@@H]3C[C@H](C)C4=CC(=O)CC[C@]4(C)[C@H]3CC[C@@]21C [MEDROXYPROGESTERONE ACETATE],105.9%,104.4%
CC(=O)[C@H]1CC[C@H]2[C@@H]3C[C@H](C)C4=CC(=O)CC[C@]4(C)[C@H]3[C@@H](O)C[C@]12C [MEDRYSONE],86.36%,90.89%
Cc1cccc(Nc2ccccc2C(=O)O)c1C [MEFENAMIC ACID],63.23%,72.63%
OC(c1cc(C(F)(F)F)nc2c(C(F)(F)F)cccc12)C1CCCCN1 (stereo not given) [MEFLOQUINE],161.6%,112.7%
CC(=O)O[C@]1(C(C)=O)CC[C@H]2[C@@H]3C=C(C)C4=CC(=O)CC[C@]4(C)[C@H]3CC[C@@]21C [MEGESTROL ACETATE],50.69%,93.03%
COc1ccc2[nH]cc(CCNC(C)=O)c2c1 [MELATONIN],71.02%,91.63%
OC[C@H]1O[C@@](CO)(O[C@H]2O[C@H](CO)[C@@H](O)[C@H](O)[C@H]2O)[C@@H](O[C@H]2O[C@H](CO)[C@@H](O)[C@H](O)[C@H]2O)[C@@H]1O [MELEZITOSE],99.1%,96.54%
CC12CC3CC(C)(C1)CC(N)(C3)C2.Cl [MEMANTINE HYDROCHLORIDE],88.64%,88.95%
CC1=CC(=O)c2ccccc2C1=O [MENADIONE],157.5%,112.1%
CC(C)[C@@H]1CC[C@@H](C)CC1=O [MENTHONE],96.98%,100.2%
CC(C)[C@@H]1CC[C@@H](C)C[C@H]1OC(=O)c1ccccc1 [MENTHYL BENZOATE],100.9%,101.1%
CNc1ccc(C(=O)CC(O)CCC(C)C2OC(=O)CC(O)CC(=O)CC(O)CC(O)CC(O)CC(O)CC3(O)CC(O)C(C(=O)OC)C(CC(O[C@@H]4O[C@H](C)[C@@H](O)[C@H](N)[C@@H]4O)/C=C/C=C/C=C/C=C/C=C/C=C/C=C/C2C)O3)cc1.COC(=O)C1C(O)CC2(O)CC(O)CC(O)CC(O)CC(O)CC(=O)CC(O)CC(=O)OC(C(C)CCC(O)CC(=O)c3ccc(N)cc3)C(C)/C=C/C=C/C=C/C=C/C=C/C=C/C=C/C(O[C@@H]3O[C@H](C)[C@@H](O)[C@H](N)[C@@H]3O)CC1O2 (stereo not given in full) [MEPARTRICIN],95.55%,86.4%
